According to US8609692B2, “TRPV1 antagonists” (AbbVie Inc., priority 2008, dated 2013):

Legend:
[1] = molecular target: T1, human TRPV1 receptor (hTRPV1) (Homo sapiens, UniProt Q8NER1); assay: Capsaicin activation assay (Ca2+ influx, FLIPR); format: cell-based; conditions: 0.05 μM capsaicin, 1321N1 cells expressing hTRPV1
T1 construct: expressed in transfected cells
Description: Dulbecco's modified Eagle medium (D-MEM) (with 4.5 mg/mL glucose) and fetal bovine serum were obtained from Hyclone Laboratories, Inc. (Logan, Utah). Dulbecco's phosphate-buffered saline (D-PBS) (with 1 mg/mL glucose and 3.6 mg/l Na pyruvate, without phenol red), L-glutamine, hygromycin B, and Lipofectamine® were obtained from Life Technologies (Grand Island, N.Y.). G418 sulfate was obtained from Calbiochem-Novabiochem Corp. (San Diego, Calif.). Capsaicin (8-methyl-N-vanillyl-6-nonenamide) was obtained from Sigma-Aldrich, Co. (St. Louis, Mo.). Fluo-4 AM (N-[4-[6-[(acetyloxy)methoxy]-2,7-difluoro-3-oxo-3H-xanthen-9-yl]-2-[2-[2-[bis[2-[(acetyloxy)methoxy]-2-oxyethyl]amino]-5-methyl-phenoxy]ethoxy]phenyl]-N-[2-[(acetyloxy)methoxy]-2-oxyethyl]-glycine, (acetyloxy)methyl ester) was purchased from Molecular Probes (Eugene, Oreg.).
The cDNAs for the human TRPV1 receptor (hTRPV1) were isolated by reverse transcriptase-polymerase chain reaction (RT-PCR) from human small intestine poly A+RNA supplied by Clontech (Palo Alto, Calif.) using primers designed surrounding the initiation and termination codons identical to the published sequences (Hayes et al. Pain 2000, 88, 205-215). The resulting cDNA PCR products were subcloned into pCIneo mammalian expression vector (Promega) and fully sequenced using fluorescent dye-terminator reagents (Prism, Perkin-Elmer Applied Biosystems Division) and a Perkin-Elmer Applied Biosystems Model 373 DNA sequencer or Model 310 genetic analyzer. Expression plasmids encoding the hTRPV1 cDNA were transfected individually into 1321N1 human astrocytoma cells using Lipofectamine®. Forty-eight hours after transfection, the neomycin-resistant cells were selected with growth medium containing 800 μg/mL Geneticin (Gibco BRL). Surviving individual colonies were isolated and screened for TRPV1 receptor activity. Cells expressing recombinant homomeric TRPV1 receptors were maintained at 37° C. in D-MEM containing 4 mM L-glutamine, 300 μg/mL G418 (Cal-biochem) and 10% fetal bovine serum under a humidified 5% CO2 atmosphere.
The functional activity of compounds at the TRPV1 receptor was determined with a Ca^2+ influx assay and measurement of intracellular Ca^2+ levels ([Ca^2+]i). All compounds were tested over an 11-point half-log concentration range. Compound solutions were prepared in D-PBS (4× final concentration), and diluted serially across 96-well v-bottom tissue culture plates using a Biomek 2000 robotic automation workstation (Beckman-Coulter, Inc., Fullerton, Calif.). A 0.2 μM solution of the TRPV1 agonist capsaicin was also prepared in D-PBS. The fluorescent Ca^2+ chelating dye Fluo-4 AM was used as an indicator of the relative levels of [Ca^2+]i in a 96-well format using a Fluorescence Imaging Plate Reader (FLIPR) (Molecular Devices, Sunnyvale, Calif.). Cells were grown to confluency in 96-well black-walled tissue culture plates. Then, prior to the assay, the cells were loaded with 100 μL per well of Fluo-4 AM (2 μM, in D-PBS) for 1-2 hours at 23° C. Washing of the cells was performed to remove extracellular Fluo-4 AM (2×1 mL D-PBS per well), and afterward, the cells were placed in the reading chamber of the FLIPR instrument. 50 μL of the compound solutions were added to the cells at the 10 second time mark of the experimental run. Then, after a 3-minute time delay, 50 μL of the capsaicin solution was added at the, 190 second time mark (0.05 μM final concentration)(final volume=200 μL) to challenge the TRPV1 receptor. Time length of the experimental run was 240 seconds. Fluorescence readings were made at 1 to 5 second intervals over the course of the experimental run. The peak increase in relative fluorescence units (minus baseline) was calculated from the 190 second time mark to the end of the experimental run, and expressed as a percentage of the 0.05 μM capsaicin (control) response. […]

[2] = Rat telemetry protocol (core body temperature); format: in vivo; conditions: core body temperature of rats at one hour post dosing (100 μmol/kg, p.o.), relative to vehicle
Description: Male, Sprague Dawley rats, 225-250 grams were anesthetized with Sevoflurane (Abbott Laboratories). Rats were placed on a heating pad and covered with a sterile surgical drape. A ventral midline abdominal incision was made and sterile cotton tip applicators were used to gently move internal tissue and expose the abdominal aorta for implantation of the telemetry catheter (Data Sciences International; TL11M2-050-PXT). Blood flow was temporarily stopped to the lower extremities (5-7 min) with Diffenbach clamps to allow the insertion of the telemetry catheter into the abdominal aorta. Once inserted, a sterile cellulose patch was placed over the catheter/aorta and secured using a small amount of tissue adhesive (Vetbond, 3M). Once catheter placement was complete, the clamps were removed and blood flow was restored to the lower extremities. The transmitter was placed in the intraperitoneal cavity. The transmitter suture rib was sewn into the abdominal sutures to secure it in place. The skin was closed using sterile wound clips and the animal removed from Sevoflurane. Buprenex ([…] s.c.; Phoenix) was administered for post-operative analgesia. Animals were maintained on a heating pad until ambulatory, and then individually housed with food and water ad lib. Surgical staples were removed after 7-10 days post-implantation. Rats were allowed a 2-week post-surgical recovery period before treatment with test compound. Oral dosing (p.o.) was at time zero, with rats receiving a single dose of vehicle (10% EtOH, 20% Tween-80, 70% PEG-400) or a 100 μmol/kg dose of compound dissolved in vehicle. Temperature measurements were recorded every 15 minutes for the duration of the study (24 hours).
The term “core body temperature” as used herein, means the temperature measured in the intraperitoneal cavity.

T1 sequence (Q8NER1 whole entry): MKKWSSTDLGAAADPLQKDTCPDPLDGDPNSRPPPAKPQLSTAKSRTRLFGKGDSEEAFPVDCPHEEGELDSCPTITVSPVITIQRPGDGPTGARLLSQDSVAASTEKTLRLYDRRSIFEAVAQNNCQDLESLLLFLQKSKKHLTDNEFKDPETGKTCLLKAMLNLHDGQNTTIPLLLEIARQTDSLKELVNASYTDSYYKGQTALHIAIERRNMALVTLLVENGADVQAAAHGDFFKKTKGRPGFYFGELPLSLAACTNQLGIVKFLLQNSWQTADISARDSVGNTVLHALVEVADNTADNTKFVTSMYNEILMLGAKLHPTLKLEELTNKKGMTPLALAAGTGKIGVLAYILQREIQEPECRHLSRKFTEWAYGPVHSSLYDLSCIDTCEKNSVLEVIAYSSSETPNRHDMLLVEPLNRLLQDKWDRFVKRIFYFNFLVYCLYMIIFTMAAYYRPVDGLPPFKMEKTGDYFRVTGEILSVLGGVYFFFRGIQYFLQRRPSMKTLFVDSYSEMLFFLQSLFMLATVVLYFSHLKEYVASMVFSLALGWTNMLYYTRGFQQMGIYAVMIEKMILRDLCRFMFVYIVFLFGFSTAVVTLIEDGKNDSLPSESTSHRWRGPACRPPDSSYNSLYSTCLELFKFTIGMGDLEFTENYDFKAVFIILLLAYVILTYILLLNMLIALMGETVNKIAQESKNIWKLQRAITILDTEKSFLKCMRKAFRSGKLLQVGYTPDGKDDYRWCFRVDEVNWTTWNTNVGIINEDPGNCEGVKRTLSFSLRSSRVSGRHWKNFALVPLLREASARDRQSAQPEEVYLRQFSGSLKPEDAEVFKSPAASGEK

Structure (SMILES) | IC50 [1] [nM] | Δ Temp [2] [°C]
CCC1(CC)C[C@@H](NC(=O)Nc2cccc3c2cnn3C)c2cccc(C(F)(F)F)c2O1 [Example 77, N-[(4R)-2,2-diethyl-8-(trifluoromethyl)-3,4-dihydro-2H-chromen-4-yl]-N′-(1-methyl-1H-indazol-4-yl)urea] | 37 | 1.0
Cn1ncc2c(NC(=O)N[C@@H]3CC(C)(C)Oc4c3cccc4C(F)(F)F)cccc21 [Example 42, N-[(4R)-2,2-dimethyl-8-(trifluoromethyl)-3,4-dihydro-2H-chromen-4-yl]-N′-(1-methyl-1H-indazol-4-yl)urea] | 20 | 0.6
CC1(C)C[C@@H](NC(=O)Nc2cccc3c2C[C@H](O)CC3)c2ccc(OC(F)(F)F)cc2O1 [Example 115, N-[(4R)-2,2-dimethyl-7-(trifluoromethoxy)-3,4-dihydro-2H-chromen-4-yl]-N′-[(7R)-7-hydroxy-5,6,7,8-tetrahydronaphthalen-1-yl]urea] | 23 | 1.2
Cn1ncc2c(NC(=O)N[C@@H]3CCOc4c(OC(F)(F)F)cccc43)cccc21 [Example 79, N-(1-methyl-1H-indazol-4-yl)-N′-[(4R)-8-(trifluoromethoxy)-3,4-dihydro-2H-chromen-4-yl]urea] | 4 | 1.5
CC1(C)C[C@@H](NC(=O)Nc2cccc3[nH]ncc23)c2cccc(C(F)(F)F)c2O1 [Example 45, N-[(4R)-2,2-dimethyl-8-(trifluoromethyl)-3,4-dihydro-2H-chromen-4-yl]-N′-1H-indazol-4-ylurea] | 11 | 0.5
Cc1cc2c(NC(=O)N[C@@H]3CC(C)(C)Oc4cc(OC(F)(F)F)ccc43)cccc2cn1 [Example 80, N-[(4R)-2,2-dimethyl-7-(trifluoromethoxy)-3,4-dihydro-2H-chromen-4-yl]-N′-(3-methylisoquinolin-5-yl)urea] | 8 | 1.7
CC1(C)C[C@@H](NC(=O)Nc2cccc3c2C[C@H](O)CC3)c2ccc(F)c(Cl)c2O1 [Example 108, N-[(4R)-8-chloro-7-fluoro-2,2-dimethyl-3,4-dihydro-2H-chromen-4-yl]-N′-[(7R)-7-hydroxy-5,6,7,8-tetrahydronaphthalen-1-yl]urea] | 21 | 1.2
CC1(C)C[C@@H](NC(=O)Nc2cccc3cnc(N)cc23)c2ccc(C(F)(F)F)cc2O1 [Example 90, N-(3-aminoisoquinolin-5-yl)-N′-[(4R)-2,2-dimethyl-7-(trifluoromethyl)-3,4-dihydro-2H-chromen-4-yl]urea] | 17 | 1.0
CC1(C)C[C@@H](NC(=O)Nc2cccc3c2C[C@@H](O)CC3)c2cc(F)ccc2O1 [Example 3, N-[(4R)-6-fluoro-2,2-dimethyl-3,4-dihydro-2H-chromen-4-yl]-N′-[(7S)-7-hydroxy-5,6,7,8-tetrahydronaphthalen-1-yl]urea] | 32 | 0.6
Cn1ncc2c(NC(=O)N[C@@H]3CC(C)(C)Oc4ccc(F)cc43)cccc21 [Example 1, N-[(4R)-6-fluoro-2,2-dimethyl-3,4-dihydro-2H-chromen-4-yl]-N′-(1-methyl-1H-indazol-4-yl)urea] | 229 | 0.5
CC1(C)C[C@@H](NC(=O)Nc2cccc3cnccc23)c2ccc(OC(F)(F)F)cc2O1 [Example 40, N-[(4R)-2,2-dimethyl-7-(trifluoromethoxy)-3,4-dihydro-2H-chromen-4-yl]-N′-isoquinolin-5-ylurea] | 5 | 0.8
O=C(Nc1cccc2c1C[C@@H](O)CC2)N[C@@H]1CC(CF)(CF)Oc2cc(Cl)ccc21 [Example 104, N-[(4R)-7-chloro-2,2-bis(fluoromethyl)-3,4-dihydro-2H-chromen-4-yl]-N′-[(7S)-7-hydroxy-5,6,7,8-tetrahydronaphthalen-1-yl]urea] | 25 | 1.1
CCC1(CC)C[C@@H](NC(=O)Nc2cccc3c2cnn3C)c2ccc(C(F)(F)F)cc2O1 [Example 49, N-[(4R)-2,2-diethyl-7-(trifluoromethyl)-3,4-dihydro-2H-chromen-4-yl]-N′-(1-methyl-1H-indazol-4-yl)urea] | 71 | 1.3
CCC1(CC)C[C@@H](NC(=O)Nc2cccc3c2cnn3C)c2ccc(Cl)cc2O1 [Example 78, N-[(4R)-7-chloro-2,2-diethyl-3,4-dihydro-2H-chromen-4-yl]-N′-(1-methyl-1H-indazol-4-yl)urea] | 13 | 0.6
Cc1cc2c(NC(=O)N[C@@H]3CC(C)(C)Oc4c3ccc(C(F)(F)F)c4F)cccc2cn1 [Example 99, N-[(4R)-8-fluoro-2,2-dimethyl-7-(trifluoromethyl)-3,4-dihydro-2H-chromen-4-yl]-N′-(3-methylisoquinolin-5-yl)urea] | 7 | 0.8
CCCC1(CCC)C[C@@H](NC(=O)Nc2cccc3c2C[C@H](O)CC3)c2cc(F)ccc2O1 [Example 72, N-[(4R)-6-fluoro-2,2-dipropyl-3,4-dihydro-2H-chromen-4-yl]-N′-[(7R)-7-hydroxy-5,6,7,8-tetrahydronaphthalen-1-yl]urea] | 7 | 0.7
Cn1ncc2c(NC(=O)N[C@@H]3CC(C)(C)Oc4cc(F)ccc43)cccc21 [Example 24, N-[(4R)-7-fluoro-2,2-dimethyl-3,4-dihydro-2H-chromen-4-yl]-N′-(1-methyl-1H-indazol-4-yl)urea] | 52 | 1.3
CCC1(CC)C[C@@H](NC(=O)Nc2cccc3c2cnn3C)c2cc(F)cc(F)c2O1 [Example 60, N-[(4R)-2,2-diethyl-6,8-difluoro-3,4-dihydro-2H-chromen-4-yl]-N′-(1-methyl-1H-indazol-4-yl)urea] | 22 | 0.7
CCC1(CC)C[C@@H](NC(=O)Nc2cccc3ccncc23)c2ccc(F)cc2O1 [Example 82, N-[(4R)-2,2-diethyl-7-fluoro-3,4-dihydro-2H-chromen-4-yl]-N′-isoquinolin-8-ylurea] | 18 | 1.5
CCC1(CC)C[C@@H](NC(=O)Nc2cccc3c2C[C@H](O)CC3)c2ccc(F)cc2O1 [Example 74, N-[(4R)-2,2-diethyl-7-fluoro-3,4-dihydro-2H-chromen-4-yl]-N′-[(7R)-7-hydroxy-5,6,7,8-tetrahydronaphthalen-1-yl]urea] | 13 | 0.9
